Assay results as given in US20250241996A1, “COMBINATORIAL, AND ROTATIONAL COMBINATORIAL THERAPIES” (Starrock Pharma Inc., priority 2022, published 2025).
Several values for one entry are separate records, joined by “and”; a condition that tells them apart may be missing. Equal entries are not always repeated. Where two headings read alike, the source gives them in different places.

Columns and labels:
[1] = Side effects and tolerability during the combinatorial weight loss regimen (Example 2)
Procedure: Subjects were seen once weekly for the first 4 weeks, and then once every two weeks, for six visits, for a total of 10 visits over 16 weeks. Vital signs and side effects were assessed at each visit.
Subjects were administered or self-administered the medications in the protocol by the appropriate route (i.e., subcutaneous injection or oral tablet/capsule) for […]. Subjects initially were administered a combination of: 1) a GLP-1 agonist (sold under trademarks Trulicity®, B-cise®, Ozempic®, and Victoza®), 2) Phentermine, 3) Liothyronine, 4) topiramate (sold under the trademark Topamax® carbonic anhydrase inhibitor), and 5) Sermorelin. The starting dosages are listed below in Table 17. The dosages were adjusted throughout the treatment period based on the subject response (i.e., weight loss), tolerability, volume of distribution, subject weight, and at the discretion of the treating physician. For example, the dosage of the GLP-1 agonists Trulicity® and Ozempic® was adjusted depending on the response to the medications. The dosage of the Bydureon BCcise® GLP-1 agonist was not adjusted since it is only produced in a 2 mg injectable dose. Phentermine was increased depending on subject response, to, for example, one 37.5 mg tablet in the morning and one-half tablet ([…]) at 2 p.m. […] If no progression was noted on the initial medications listed above, then the following medications were added to the protocol: Acarbose, Januvia® dipeptidyl peptidase-4 (DPP-4) inhibitor, Invokana® sodium-glucose co-transporter 2 (SGLT2) inhibitor, and Farxiga® (dapagliflozin) in the dosages listed in Table 17, below. For example, if weight loss progress was slow and a subject was consuming large amounts of carbohydrate-rich foods, the alpha-glucosidase inhibitor, Acarbose, was added to the regimen. […] This was added in addition to medications i-iv and ix, below. The regimen provided a minimum of four medications, and more medications were added and/or the dosages were modified as required in subsequent visits.
In other examples, the regimen began with administration of medications i-iv and ix and other medications were added; additional medications were administered at week 2 or week 7, for example, if the subject was not responding and needed an extra pharmacological ‘push.’
As noted above, the medication dosages were adjusted throughout the treatment period as needed, and as agreed to between the treating physician and the subject. […] For larger subjects (i.e., starting weight over 300 pounds) who were losing less than 6 pounds per week, medication dosages were increased or additional medications were added to the regimen. The hierarchy of decision making included 1) increase the dosage of the medications to the maximum allowable dosage or to the level of tolerability of the medication; and then 2) add a fifth or sixth medication, as needed to increase weight loss.

[2] = cited from earlier work
[3] = cited from earlier work; remark: listed apart in the source
[4] = cited from earlier work; remark: listed apart in the source
[5] = cited from earlier work; remark: listed apart in the source
[6] = after 36 weeks, cited from earlier work

C[C@H]1O[C@H](O[C@H]2[C@H](O)[C@@H](O)[C@@H](O[C@H]3[C@H](O)[C@@H](O)C(O)O[C@@H]3CO)O[C@@H]2CO)[C@H](O)[C@@H](O)[C@@H]1N[C@H]1C=C(CO)[C@@H](O)[C@H](O)[C@H]1O (some centres unmarked) [Acarbose]
Side effect(s) ([1]; subject 4, dosages of Table 24): Mild

Fc1ccccc1Nc1nc2nonc2nc1Nc1ccccc1F [BAM15, (2-fluorophenyl){6-[(2-fluorophenyl)amino](1,2,5-oxadiazolo [3,4e]pyrazin-5-yl)}amine]
diet-induced obesity and insulin resistance ([2]; orally administered, mice): reverses diet-induced obesity and insulin resistance in mice

CC(NC(C)(C)C)C(=O)c1cccc(Cl)c1 (centres unmarked) [Bupropion]
Side effect(s) ([1]; in vivo): None

O=[N+]([O-])c1ccc(O)c([N+](=O)[O-])c1 [DNP, 2,4-dinitrophenol]
toxicity ([3]; tested clinically): limited utility owing to toxicity

CCN(CC)C(C)C(=O)c1ccccc1 (centres unmarked) [Diethylproprion]
Side effect(s) ([1]; subject 2, dosages of Table 20): None

C[C@H]1CNCCc2ccc(Cl)cc21 [Locasarin]
Weight loss ([4]; Duration 56 weeks): 5.8%

O=C1CC[C@@]2(O)[C@H]3Cc4ccc(O)c5c4[C@@]2(CCN3CC2CC2)[C@H]1O5 [Naltrexone]
weight loss in monotherapy ([3]; human, in vivo): does not cause weight loss in monotherapy

CCCCCCCCCCC[C@@H](C[C@@H]1OC(=O)[C@H]1CCCCCC)OC(=O)[C@H](CC(C)C)NC=O [Orlistat]
>%5 (percent of subjects who lost greater than 5%) ([4]; Duration 56 weeks): 48% | >%10 (percent of subjects who lost greater than 10%) ([4]; Duration 56 weeks): 17.9% | Weight loss ([4]; Duration 56 weeks): 6.2% and 4% and 8.5% | participants with 5% and more weight loss ([4]; Duration 56 weeks): 48% | participants with 10% and more weight loss ([4]; Duration 56 weeks): 17.9% | placebo-normalized weight loss ([3]; human, in vivo): ~2.5%

C[C@H]1[C@H](c2ccccc2)OCCN1C [Phendimetrazine]
Side effect(s) ([1]; subject 5, dosages of Table 26): None

CC(C)(N)Cc1ccccc1 [Phentermine]
>%5 (percent of subjects who lost greater than 5%) ([4]; Duration 12 weeks): 95% | >%10 (percent of subjects who lost greater than 10%) ([4]; Duration 12 weeks): 62.5% | Weight loss ([4]; Duration 12 weeks): 8% and 7% | participants with 5% and more weight loss ([4]; Duration 12 weeks): 95% | participants with 10% and more weight loss ([4]; Duration 12 weeks): 62.5% | Weight loss ([4]; Duration 12 weeks, listed as phentermine): 8% and 7% | Weight loss ([4]; Duration 20 weeks): 9% | Weight loss ([4]; Duration 28 weeks): 6% | Side effect(s) ([1]; subject 1, dosages of Table 18): Dry mouth | Side effect(s) ([1]; subject 2, dosages of Table 20): Dry mouth | Side effect(s) ([1]; subject 3, dosages of Table 22): None and Dry mouth | Side effect(s) ([1]; subject 4, dosages of Table 24): None | Side effect(s) ([1]; subject 5, dosages of Table 26): None

Cc1c(C(=O)NN2CCCCC2)nn(-c2ccc(Cl)cc2Cl)c1-c1ccc(Cl)cc1 [Rimonabant]
adverse psychiatric effects ([3]; human, in vivo): discontinued in 2009 due to serious adverse psychiatric effects | placebo-subtracted weight loss ([3]; human, in vivo): 2.6 to 6.3 kg

CCOC[C@@H]1[C@@H](c2ccc(Cl)c(Cl)c2)C[C@@H]2CC[C@H]1N2C [Tesofensine]
decrease of body weight ([3]; phase II study, dose-dependent): 4.4-10.4%

CC1(C)O[C@@H]2[C@@H](CO[C@@]3(COS(N)(=O)=O)OC(C)(C)O[C@@H]23)O1 [Topiramate]
tolerability within the regimen ([1]; in vivo): the least tolerated, and was discontinued in some cases

CC[C@H](C)[C@H](NC(=O)[C@H](Cc1ccccc1)NC(=O)[C@H](CCC(=O)O)NC(=O)[C@H](CCCCNC(=O)COCCOCCNC(=O)COCCOCCNC(=O)CC[C@H](NC(=O)CCCCCCCCCCCCCCCCC(=O)O)C(=O)O)NC(=O)[C@H](C)NC(=O)[C@H](C)NC(=O)[C@H](CCC(N)=O)NC(=O)CNC(=O)[C@H](CCC(=O)O)NC(=O)[C@H](CC(C)C)NC(=O)[C@H](Cc1ccc(O)cc1)NC(=O)[C@H](CO)NC(=O)[C@H](CO)NC(=O)[C@@H](NC(=O)[C@H](CC(=O)O)NC(=O)[C@H](CO)NC(=O)[C@@H](NC(=O)[C@H](Cc1ccccc1)NC(=O)[C@@H](NC(=O)CNC(=O)[C@H](CCC(=O)O)NC(=O)C(C)(C)NC(=O)[C@@H](N)Cc1cnc[nH]1)[C@@H](C)O)[C@@H](C)O)C(C)C)C(=O)N[C@@H](C)C(=O)N[C@@H](Cc1c[nH]c2ccccc12)C(=O)N[C@@H](CC(C)C)C(=O)N[C@H](C(=O)N[C@@H](CCCNC(=N)N)C(=O)NCC(=O)N[C@@H](CCCNC(=N)N)C(=O)NCC(=O)O)C(C)C [semaglutide]
Side effect(s) ([1]; in vivo): constipation

CC[C@H](C)[C@H](NC(=O)[C@H](C)NC(=O)[C@H](CC(=O)O)NC(=O)[C@H](C)NC(=O)[C@@H](N)Cc1ccc(O)cc1)C(=O)N[C@@H](Cc1ccccc1)C(=O)N[C@H](C(=O)N[C@@H](CC(N)=O)C(=O)N[C@@H](CO)C(=O)N[C@@H](Cc1ccc(O)cc1)C(=O)N[C@@H](CCCNC(=N)N)C(=O)N[C@@H](CCCCN)C(=O)N[C@H](C(=O)N[C@@H](CC(C)C)C(=O)NCC(=O)N[C@@H](CCC(N)=O)C(=O)N[C@@H](CC(C)C)C(=O)N[C@@H](CO)C(=O)N[C@@H](C)C(=O)N[C@@H](CCCNC(=N)N)C(=O)N[C@@H](CCCCN)C(=O)N[C@@H](CC(C)C)C(=O)N[C@@H](CC(C)C)C(=O)N[C@@H](CCC(N)=O)C(=O)N[C@@H](CC(=O)O)C(=O)N[C@H](C(=O)N[C@@H](CCSC)C(=O)N[C@@H](CO)C(=O)N[C@@H](CCCNC(=N)N)C(N)=O)[C@@H](C)CC)C(C)C)[C@@H](C)O [sermorelin]
Side effect(s) ([1]; in vivo): None

Novo Nordisk Wegovy ™ semaglutide weight loss medication
12 weeks % weight change ([5]; Wegovy Study 1, baseline mean body weight 105.4 kg): −6% | 36 weeks % weight change ([5]; Wegovy Study 1): −12% | 12 weeks % weight change ([5]; Wegovy Study 2, baseline mean body weight 99.9 kg): −4.5% | 36 weeks % weight change ([5]; Wegovy Study 2): −9% | 12 weeks % weight change ([5]; Wegovy Study 3, baseline mean body weight 106.9 kg): −7% | 36 weeks % weight change ([5]; Wegovy Study 3): −13% | 12 weeks % weight change ([5]; Wegovy Study 4, baseline mean body weight 107.2 kg): −5.5% | 36 weeks % weight change ([5]; Wegovy Study 4): −12%

dulaglutide
average weight lost ([6]; 1.5 mg once weekly with ≥1500 mg/day metformin): 6.6 pounds | average weight lost ([6]; 3.0 mg once weekly with ≥1500 mg/day metformin): 8.4 pounds | average weight lost ([6]; 4.5 mg once weekly with ≥1500 mg/day metformin): 1.1 pounds | Side effect(s) ([1]; in vivo): constipation

leptin: 167 amino acid hormone (SEQ ID NO:3)
lowering of body weight by supplementation ([3]; obese individuals): has not been shown to be effective to lower body weight in obese individuals

B1: recombinant GDF15: Macrophage inhibitory cytokine 1 (SEQ ID NO:33) (protein, listed as Homo sapiens)
chain: MPGQELRTVNGSQMLLVLLVLSWLPHGGALSLAEASRASFPGPSELHSEDSRFRELRKRYEDLLTRLRANQSWEDSNTDLVPAPAVRILTPEVRLGSGGHLHLRISRAALPEGLPEASRLHRALFRLSPTASRSWDVTRPLRRQLSLARPQAPALHLRLSPPPSQSDQLLAESSSARPQLELHLRPQAARGRRRARARNGDHCPLGPGRCCRLHTVRASLEDLGWADWVLSPREVQVTMCIGACPSQFRAANMHAQIKTSLHRLKPDTVPAPCCVPASYNPMVLIQKTDTGVSLQTYDDLLAKDCHCI
modifications: Macrophage inhibitory cytokine 1 (MIC1 or GDF15)
body weight ([2]; exogenous administration, diet-induced obese mice and non-human primates): decreases body weight in diet-induced obese mice and non-human primates
